These results are taken from patent publication US11655235B2, “Pyrrolidine and piperidine compounds” (YUHAN CORPORATION, priority 2019, dated 2023).

One assay concerns the target T1, Recombinant human FAP (Homo sapiens, UniProt Q12884).
T1 construct: purchased R&D systems
T1 sequence (Q12884 1-760): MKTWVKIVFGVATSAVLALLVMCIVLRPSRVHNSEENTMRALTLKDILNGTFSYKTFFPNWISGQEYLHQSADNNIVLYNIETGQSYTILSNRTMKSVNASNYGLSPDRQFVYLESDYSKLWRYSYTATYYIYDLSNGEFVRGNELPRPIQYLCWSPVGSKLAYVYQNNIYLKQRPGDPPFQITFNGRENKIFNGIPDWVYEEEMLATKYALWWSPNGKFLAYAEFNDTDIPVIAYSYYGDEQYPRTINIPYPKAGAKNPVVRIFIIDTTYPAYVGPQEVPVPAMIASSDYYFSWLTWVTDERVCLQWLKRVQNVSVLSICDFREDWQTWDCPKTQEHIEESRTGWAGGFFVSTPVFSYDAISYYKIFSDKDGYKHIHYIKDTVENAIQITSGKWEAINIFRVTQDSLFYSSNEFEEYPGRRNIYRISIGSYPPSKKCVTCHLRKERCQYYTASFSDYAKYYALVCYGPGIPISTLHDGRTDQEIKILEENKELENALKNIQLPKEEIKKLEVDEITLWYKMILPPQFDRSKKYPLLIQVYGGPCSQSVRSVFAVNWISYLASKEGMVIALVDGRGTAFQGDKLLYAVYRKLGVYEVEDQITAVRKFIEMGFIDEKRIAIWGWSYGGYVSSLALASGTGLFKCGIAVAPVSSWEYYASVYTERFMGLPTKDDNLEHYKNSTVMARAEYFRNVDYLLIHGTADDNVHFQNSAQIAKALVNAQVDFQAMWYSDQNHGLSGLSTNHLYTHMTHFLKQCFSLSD
As to the kind of experiment: FAP inhibition, fluorogenic substrate Z-Gly-Pro-AMC. The assay is classed as biochemical. The settings on record: for inhibition at 1 µM: read-out: hFAP inhibition % at 1 μM. The method, then:
The compounds according to the present technology were evaluated in terms of the inhibitory effect on the activity of dipeptidyl peptidases including FAP by using a substrate producing fluorescent substances upon enzymatic decomposition. The test was conducted at 25° C. to get a final reaction volume of 100 μL in a 96 black well plate. […] Briefly, the test compounds were dissolved in dimethyl sulfoxide (DMSO) at a concentration of 20 mM and then subjected to serial dilution, thereby creating an 8 point curve. As for the control group, a 6 point curve created by serial dilution of Talabostat in the same buffer solution was used. Fluorescence intensity was measured using a microplate reader (Flexstation3, Molecular Devices) under the wavelength condition exciting at 380 nm and reading the emission at 460 nm. The inhibitory effect of the test compounds was measured as a decrease (%) in the signal rate as compared to the control group without any inhibitor. Data was fixed to a logistic model with four variables and IC50 value was calculated using GraphPad Prism program. Recombinant human FAP (R&D systems) was diluted with 50 mM tris (pH 7.5) buffer comprising 1 M of sodium chloride and 1 mg/ml of bovine serum albumin (BSA) to be 10 ng per final reaction. The test compounds were subjected to serial dilution in a buffer under the condition containing up to 0.1% of DMSO. Z-Gly-Pro-AMC (Bachem) was used as a substrate. By dissolving in DMSO and then diluting in the same buffer, the substrate was added to be […] per final reaction.

For the next assay, the target named is DPP4 (Homo sapiens, UniProt P27487). As to the kind of experiment: DPP4 inhibition, fluorogenic substrate H-Gly-Pro-AMC. The assay is classed as biochemical. Set-up: purchased R&D Systems. To be noted: for inhibition at 1 µM: read-out: hDPP4 inhibition % at 1 μM. On the procedure: The compounds according to the present technology were evaluated in terms of the inhibitory effect on the activity of dipeptidyl peptidases including FAP by using a substrate producing fluorescent substances upon enzymatic decomposition. The test was conducted at 25° C. to get a final reaction volume of 100 μL in a 96 black well plate. […] Briefly, the test compounds were dissolved in dimethyl sulfoxide (DMSO) at a concentration of 20 mM and then subjected to serial dilution, thereby creating an 8 point curve. As for the control group, a 6 point curve created by serial dilution of Talabostat in the same buffer solution was used. Fluorescence intensity was measured using a microplate reader (Flexstation3, Molecular Devices) under the wavelength condition exciting at 380 nm and reading the emission at 460 nm. The inhibitory effect of the test compounds was measured as a decrease (%) in the signal rate as compared to the control group without any inhibitor. Data was fixed to a logistic model with four variables and IC50 value was calculated using GraphPad Prism program. As for recombinant human DPP4 (R&D Systems), 25 mM tris (pH 8.0) buffer as a buffer solution and H-Gly-Pro-AMC (Bachem) as a substrate were used. As for recombinant human DPP7 (R&D Systems), 25 mM MES (pH 6.0) buffer as a buffer solution and Lys-Pro-AMC (Bachem) as a substrate were used. As for recombinant human DPP8 (PBS Bioscience), as a buffer solution, a 10 mM tris (pH 7.4) buffer comprising 10 mM of magnesium chloride and 0.05% of Tween 20, and Z-Ala-Pro-AMC (BPS Bioscience) as a substrate were used. As for recombinant human DPP9 (R&D Systems), a 25 mM tris (pH 8.0) buffer as a buffer solution and H-Gly-Pro-AMC (Bachem) as a substrate were used. As for recombinant human PREP (R&D System), as a buffer solution, a 25 mM tris (pH 7.5) buffer comprising 250 mM sodium chloride and 2.5 mM DTT (Dithiolthreitol), and Z-Gly-Pro-AMC (Bachem) as a substrate were used. The evaluation was made by using 10 ng of DPP4, PDD7, and PREP, 20 ng of DPP8, and 50 ng of DPP9 based on the final reaction. In the evaluation of DPP4, the test compounds were subjected to serial dilution in a buffer under the condition containing up to 0.1% of DMSO. In the evaluation of DPP7, DPP8, DPP9, and PREP, the test compounds were subjected to serial dilution in each buffer under the condition containing up to 0.5% of DMSO.

Setting [1] is: 25° C., Z-Gly-Pro-AMC substrate.
[2] abbreviates: recombinant human FAP, substrate Z-Gly-Pro-AMC.

Sequence of DPP4 (P27487 whole entry): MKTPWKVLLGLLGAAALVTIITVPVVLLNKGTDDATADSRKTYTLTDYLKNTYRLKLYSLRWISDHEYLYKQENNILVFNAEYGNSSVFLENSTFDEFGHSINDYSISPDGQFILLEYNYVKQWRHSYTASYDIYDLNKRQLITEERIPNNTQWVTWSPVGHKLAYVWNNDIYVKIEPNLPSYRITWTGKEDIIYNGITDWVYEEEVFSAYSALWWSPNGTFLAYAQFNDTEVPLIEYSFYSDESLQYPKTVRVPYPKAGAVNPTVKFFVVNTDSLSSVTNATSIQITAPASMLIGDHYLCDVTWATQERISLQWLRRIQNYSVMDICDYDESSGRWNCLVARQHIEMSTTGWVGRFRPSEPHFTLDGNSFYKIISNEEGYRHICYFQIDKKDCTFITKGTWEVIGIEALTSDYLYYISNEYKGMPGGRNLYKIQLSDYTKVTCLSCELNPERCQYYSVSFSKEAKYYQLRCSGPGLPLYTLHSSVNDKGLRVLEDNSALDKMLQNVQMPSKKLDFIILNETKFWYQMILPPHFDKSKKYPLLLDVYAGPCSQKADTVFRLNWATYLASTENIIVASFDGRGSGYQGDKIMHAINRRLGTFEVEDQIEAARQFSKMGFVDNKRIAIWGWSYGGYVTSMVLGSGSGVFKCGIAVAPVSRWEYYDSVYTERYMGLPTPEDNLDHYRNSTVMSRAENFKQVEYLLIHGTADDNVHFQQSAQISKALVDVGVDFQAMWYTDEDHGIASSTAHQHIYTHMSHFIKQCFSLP

What is called IC50 is the midpoint of a concentration-inhibition curve. The term inhibition denotes the share of the control response that was lost under treatment. For `N#C[C@@H]1CCCN1C(=O)CN1CC[C@H](NC(=O)c2cnc3ccccc3c2)C1` [Example 31, N—((S)-1-(2-((S)-2-cyanopyrrolidin-1-yl)-2-oxoethyl)pyrrolidin-3-yl)quinoline-3-carboxamide], the IC50 on Recombinant human FAP (setting [1]) is 164 nM. The inhibition at 1 µM on DPP4 turned out to be 5.4%.
On to `N#C[C@@H]1CCCN1C(=O)CN1CC[C@H](Oc2ccc(-c3ccccc3)cc2)C1` [Example 83, (S)-1-(2-((S)-3-([1,1′-biphenyl]-4-yloxy)pyrrolidin-1-yl)acetyl)pyrrolidine-2-carbonitrile], for which the inhibition at 1 µM on Recombinant human FAP was determined as 68.1%; at DPP4, 6.3%.
Regarding `Cc1ccc2ncccc2c1NC1CCN(CC(=O)N2C[C@@H](F)C[C@H]2C#N)CC1` [Example 134, (2S,4S)-4-fluoro-1-(2-(4-((6-methylquinolin-5-yl)amino)piperidin-1-yl)acetyl)pyrrolidine-2-carbonitrile], the IC50 at Recombinant human FAP (setting [1]) worked out at 343 nM; against DPP4 (25° C., H-Gly-Pro-AMC substrate), 8010 nM.
In the case of `N#C[C@@H]1CCCN1C(=O)CN1CC[C@H](NS(=O)(=O)c2cc3ccccc3s2)C1` [Example 60, N—((S)-1-(2-((S)-2-cyanopyrrolidin-1-yl)-2-oxoethyl)pyrrolidin-3-yl)benzo[b]thiophene-2-sulfonamide], at Recombinant human FAP, the inhibition at 1 µM was found to be 44.2%. The “hDPP4 inhibition % at 1 μM” value at DPP4 is “No inhibition**”.
Take `N#C[C@@H]1CCCN1C(=O)CN1CC[C@H](Oc2ccc(Oc3ccccc3)cc2)C1` [Example 87, (S)-1-(2-((S)-3-(4-phenoxyphenoxy)pyrrolidin-1-yl)acetyl)pyrrolidine-2-carbonitrile]: the inhibition at 1 µM on Recombinant human FAP was 51.9%; at DPP4, 6.9%.
With `N#C[C@@H]1CCCN1C(=O)CN1CC[C@H](Oc2ccc3ncccc3c2)C1` [Example 63, (S)-1-(2-((S)-3-(quinolin-6-yloxy)pyrrolidin-1-yl)acetyl)pyrrolidine-2-carbonitrile], the IC50 at Recombinant human FAP (setting [1]) turned out to be 130 nM. Besides, the “hDPP4 inhibition % at 1 μM” value on DPP4 was “No inhibition**”.
For the compound `N#C[C@@H]1CCCN1C(=O)CN1CC[C@H](C(=O)Nc2cnc3ccccc3c2)C1` [Example 3, (S)-1-(2-((S)-2-cyanopyrrolidin-1-yl)-2-oxoethyl)-N-(quinolin-3-yl)pyrrolidine-3-carboxamide], the half-inhibitory concentration (IC50) at Recombinant human FAP (setting [1]) turned out to be 175 nM. Further, the inhibition at 1 µM at DPP4 is 4.2%.
The matching figures for `N#C[C@@H]1CCCN1C(=O)CN1CC[C@H](NC(=O)c2cccc3ncccc23)C1` [Example 32, N—((S)-1-(2-((S)-2-cyanopyrrolidin-1-yl)-2-oxoethyl)pyrrolidin-3-yl)quinoline-5-carboxamide]: 70.4 nM and 2%.
For `N#C[C@@H]1CCCN1C(=O)CN1CC[C@H](Oc2ccc(Cl)c3ccccc23)C1` [Example 71, (S)-1-(2-((S)-3-((4-chloronaphthalen-1-yl)oxy)pyrrolidin-1-yl)acetyl)pyrrolidine-2-carbonitrile], the IC50 at Recombinant human FAP (setting [1]) came out at 42.6 nM. At DPP4, the “hDPP4 inhibition % at 1 μM” value is “No inhibition**”.
In the case of `N#C[C@@H]1CCCN1C(=O)CN1CC[C@H](NS(=O)(=O)c2cc3ccccc3o2)C1` [Example 59, N—((S)-1-(2-((S)-2-cyanopyrrolidin-1-yl)-2-oxoethyl)pyrrolidin-3-yl)benzofuran-2-sulfonamide], the inhibition at 1 µM at Recombinant human FAP is 33.4%. Moreover, at DPP4, the “hDPP4 inhibition % at 1 μM” value is listed as “No inhibition**”.
For the compound `N#C[C@@H]1CCCN1C(=O)CN1CC[C@H](NC(=O)c2cccc3ccoc23)C1` [Example 58, N—((S)-1-(2-((S)-2-cyanopyrrolidin-1-yl)-2-oxoethyl)pyrrolidin-3-yl)benzofuran-7-carboxamide], the IC50 at Recombinant human FAP (setting [1]) was 62.5 nM. For the same compound, at DPP4, the “hDPP4 inhibition % at 1 μM” value is on record as “No inhibition**”.
As to `N#C[C@@H]1C[C@H](F)CN1C(=O)CN1CC[C@@H](Nc2cccc3cccnc23)C1` [Example 169, (2S,4S)-4-fluoro-1-[2-[(3R)-3-(8-quinolylamino)pyrrolidin-1-yl]acetyl]pyrrolidine-2-carbonitrile], the 50% inhibitory concentration (IC50) at Recombinant human FAP (setting [2]) came to 35.4 nM.
As for `CN(c1ccnc2ccccc12)[C@H]1CCN(CC(=O)N2CCC[C@H]2C#N)C1` [Example 143, (2S)-1-[2-[(3S)-3-[methyl(4-quinolyl)amino]pyrrolidin-1-yl]acetyl]pyrrolidine-2-carbonitrile], at Recombinant human FAP (setting [1]), the IC50 came to 55.4 nM.
Consider `N#C[C@@H]1CCCN1C(=O)CN1CC[C@@H](Nc2ccc3cccnc3c2)C1` [Example 163, (2S)-1-[2-[(3R)-3-(7-quinolylamino)pyrrolidin-1-yl]acetyl]pyrrolidine-2-carbonitrile], for which the half-maximal inhibitory concentration (IC50) on Recombinant human FAP (setting [2]) came to 29 nM.
As to `N#C[C@@H]1CCCN1C(=O)CN1CC[C@@H](Nc2cccc3cccnc23)C1` [Example 164, (2S)-1-[2-[(3R)-3-(8-quinolylamino)pyrrolidin-1-yl]acetyl]pyrrolidine-2-carbonitrile], the IC50 on Recombinant human FAP (setting [2]) was determined as 56.8 nM.
For the compound `CN(c1ccc2ccccc2n1)[C@@H]1CCN(CC(=O)N2CCC[C@H]2C#N)C1` [Example 137, (2S)-1-[2-[(3R)-3-[methyl(2-quinolyl)amino]pyrrolidin-1-yl]acetyl]pyrrolidine-2-carbonitrile], the IC50 at Recombinant human FAP (setting [1]) was 86.1 nM.
Regarding `N#C[C@@H]1C[C@H](F)CN1C(=O)CN1CC[C@@H](Nc2ccc3cccnc3c2)C1` [Example 168, (2S,4S)-4-fluoro-1-[2-[(3R)-3-(7-quinolylamino)pyrrolidin-1-yl]acetyl]pyrrolidine-2-carbonitrile], the 50% inhibitory concentration (IC50) on Recombinant human FAP (setting [2]) amounted to 11.5 nM.
Take `CN(c1ccc2cccnc2c1)[C@@H]1CCN(CC(=O)N2CCC[C@H]2C#N)C1` [Example 141, (2S)-1-[2-[(3R)-3-[methyl(7-quinolyl)amino]pyrrolidin-1-yl]acetyl]pyrrolidine-2-carbonitrile]: the IC50 on Recombinant human FAP (setting [1]) was 34.1 nM.
Consider `CN(c1cncc2ccccc12)[C@H]1CCN(CC(=O)N2CCC[C@H]2C#N)C1` [Example 147, (2S)-1-[2-[(3S)-3-[4-isoquinolyl(methyl)amino]pyrrolidin-1-yl]acetyl]pyrrolidine-2-carbonitrile], for which the IC50 at Recombinant human FAP (setting [1]) came to 14.7 nM.
